In test [1] the test system is B. bronchiseptica Rb50 biofilms. Description: Static bacterial biofilm inhibition assay (crystal violet), Rb50. The test is classed as cell-based. The settings on record: Bordetella bronchiseptica, RB50BIOFILMS
The procedure: (§1) Each 2-AIT conjugate was initially screened at 300 μM for their ability to inhibit P. aeruginosa PAO1 and PA14 biofilms, A. baumannii biofilms and B. bronchiseptica Rb50 biofilms using a crystal violet reporter assay (G. A. O'Toole, R. Kolter, Molecular Microbiology 1998, 2, 295-304). […] This is an order of magnitude increase in activity when compared to DHS (J. J. Richards, R. W. Huigens, T. E. Ballard, A. Basso, J. Cavanagh, C. Melander, Chemical Communications 2008, 14, 1698-1700). […] 6 also dispersed pre-formed A. baumanni biofilms with an EC50 of 400 μM (FIG. 2A).
(§2) General Static Bacterial Biofilm Inhibition Assay Procedure for A. baumannii, P. aeruginosa, B. bronchiseptica and S. aureus: Biofilm inhibition assays were performed by taking an overnight culture of bacterial strain and subculturing it at an OD600 of 0.01 into the necessary growth liquid medium (LB for A. baumannii, LBNS for P. aeruginosa, Stainer Scholte medium that was supplemented with […] of 100× nutrient complex for B. bronchiseptica and TSBG for S. aureus) for the strain. The compound being tested was then added at a predetermined concentration and then aliquoted (100 μL) into the wells of a 96-well PVC microtiter plate (Wells not used for samples are filled with 100 μL of de-ionized water). Plates were then wrapped in GLAD Press n′ Seal® and incubated under stationary conditions at 37° C. After 24 hours, the media was discarded from the wells and the plates were washed thoroughly with tap water. Plates were then stained with 100 μL of 0.1% solution of crystal violet (CV) and then incubated at an ambient temperature for 30 minutes. Sample plates were then washed with tap water again and the remaining stain was solubilized with 200 μl, of 95% ethanol. Biofilm inhibition was quantitated by measuring the OD540 for each well by transferring 125 μL of the solubilized CV stain into a polystyrene microtiter dish for analysis.

Test [2] concerns P. aeruginosa PAO1 biofilms. Description: Static bacterial biofilm inhibition assay (crystal violet), PAO1. The test is classed as cell-based. The following applies: Pseudomonas aeruginosa. How it is done:
as §1, §2

In test [3] the test system is Staphylococcus aureus biofilm. Description: Static bacterial biofilm inhibition assay (crystal violet), S. aureus. Format: cell-based. The procedure:
as §2

The subject of test [4] is pre-formed P. aeruginosa PA14 biofilms. Description: Static bacterial biofilm dispersion assay, PA14. The test is classed as cell-based. The following applies: Pseudomonas aeruginosa. How it is done: (§3) General Static Bacterial Biofilm Dispersion Assay Procedure for A. baumannii, P. aeruginosa and S. aureus: Dispersion assays were performed by taking an overnight culture of bacterial strain and subculturing it at an OD600 of 0.01 into the necessary growth liquid medium. The resulting bacterial suspension was aliquoted (100 μL) into the wells of a 96-well PVC microtiter plate. Plates were then wrapped in GLAD Press n′ Seal® followed by an incubation under stationary conditions at an ambient temperature. After 24 hours, the media was discarded from the wells and the plates were washed thoroughly with tap water. Predetermined concentrations of the compound were then made in the same medium used to initially grow the biofilms and then aliquoted (100 μL) into the wells of the 96-well PVC microtiter plate with the established biofilms. Plates were then wrapped in GLAD Press n′ Seal® and incubated under stationary conditions at 37° C. After 24 hours, the media was discarded from the wells and the plates were washed thoroughly with tap water. Plates were then stained with 100 μL of 0.1% solution of crystal violet (CV) and then incubated at room temperature for 30 minutes. Plates were then washed with tap water again and the remaining stain was solubilized with 200 μL of 95% ethanol. Biofilm dispersion was quantitated by measuring the OD540 for each well by transferring 125 μL of the solubilized CV stain into a polystyrene microtiter dish for analysis.

Test [5] has as its system pre-formed B. bronchiseptica Rb50 biofilms. Description: Static bacterial biofilm dispersion assay, Rb50. The settings on record: Bordetella bronchiseptica. Format: cell-based. How it is done:
as §3
General Static Bacterial Biofilm Dispersion Assay Procedure for B. bronchiseptica: This procedure is identical to the general dispersion procedure described above except that initial biofilm formation in the absence of the test compound was carried out at 37° C.

Another test has as its system A. baumannii biofilms. Description: Static bacterial biofilm inhibition assay (crystal violet), A. baumannii. The test is classed as cell-based, Acinetobacter baumannii. The following applies: Acinetobacter baumannii, read-out: IC50 of biofilm inhibition, A. baumannii. How it is done:
as §1, §2

The subject of test [6] is pre-formed P. aeruginosa PAO1 biofilms. Description: Static bacterial biofilm dispersion assay, PAO1. Format: cell-based. The following applies: Pseudomonas aeruginosa. How it is done: as §3
Test [7] has as its system pre-formed S. aureus biofilms. Nature of the test: Static bacterial biofilm dispersion assay, S. aureus. Format: cell-based. The following applies: Staphylococcus aureus. The procedure: as §3
The subject of test [8] is P. aeruginosa PA14 biofilms. Description: Static bacterial biofilm inhibition assay (crystal violet), PA14. Format: cell-based. The settings on record: Pseudomonas aeruginosa. The procedure: as §1, §2
For test [9], the system named is A. baumannii, PAO1, PA14, Rb50, S. aureus (each bacterial strain). Description: Planktonic growth curves and colony counts, each bacterial strain. The test is classed as cell-based. The settings on record: each bacterial strain grown in the presence of compound. The procedure:
(§4) The OD600 was recorded at 1, 3, 4, 5, 6 and 24 hours.
(§5) General Colony Count Procedure for A. baumannii, P. aeruginosa, B. bronchiseptica and S. aeureus: Colony counts were performed by incubating either bacterial strain in the presence and absence of the test compound at 37° C. in culture tubes until the sample with the absence of the test compound reached an OD600 of 0.40 from a starting OD600 of 0.01. This typically took three to four hours. Once the OD600 of approximately 0.40 was observed, 100 μL were taken from each culture tube from which serial dilutions were made. Then, 10 μL were removed from each serial dilution and plated out on a square gridded petri-dish followed by 16 hours of incubation at 37° C. period (48 hours for B. bronchiseptica) to grow countable colonies. Viable bacteria were quantified through employment of the track-dilution method (Jett et al., Bio Techniques. 1997, 23, 648-650).

Test [10] concerns pre-formed A. baumannii biofilms. Nature of the test: Static bacterial biofilm dispersion assay, A. baumannii. Format: cell-based. The settings on record: Acinetobacter baumannii. The procedure:
as §3

Test [11] has as its system A. baumannii planktonic growth. Nature of the test: Planktonic growth curves and colony counts, A. baumannii. Format: cell-based, Acinetobacter baumannii. The settings on record: FIGS. 3A, 4A. How it is done:
as §4, §5

The next test relates to MRSA. Nature of the test: Biofilm inhibition at 100 μM, MRSA. Format: cell-based. The following applies: Staphylococcus aureus, read-out: MRSA % Inhibition. How it is done: (§6) Procedure to Determine the Inhibitory Effect of Test Compounds on E. faecium, MRSA, S. epidermidis, PAO1, PA14, E. Coli and MDRAB Biofilm Formation: Inhibition assays were performed by taking an overnight culture of bacterial strain and subculturing it at an OD600 of 0.01 into the necessary media (brain heart infusion for E. faecium, tryptic soy broth with a 0.5% glucose supplement (TSBG) for MRSA, Luria-Bertani (LB) media for MDRAB, Luria-Bertani media without NaCl (LBNS) for PAO1 and PA14, Luria-Bertani (LB) media for E. coli and tryptic soy broth with a 0.5% glucose supplement and a 3.0% NaCl supplement (TGN) for S. epidermidis. Stock solutions of predetermined concentrations of the test compound were then made in the necessary media. These stock solutions were aliquoted (100 μL) into the wells of the 96-well PVC microtiter plate. Sample plates were then wrapped in GLAD Press n′ Seal® followed by an incubation under stationary conditions for 24 h at 37° C. After incubation, the media was discarded from the wells and the plates were washed thoroughly with water. Plates were then stained with 100 μL of 0.1% solution of crystal violet (CV) and then incubated at ambient temperature for 30 min. Plates were washed with water again and the remaining stain was solubilized with 200 μL of 95% ethanol. A sample of 125 μL of solubilized CV stain from each well was transferred to the corresponding wells of a polystyrene microtiter dish. Biofilm inhibition was quantitated by measuring the OD540 of each well in which a negative control lane wherein no biofilm was formed served as a background and was subtracted out.
Biofilm inhibition has been tested for the following compounds, each of which was tested at a concentration of 100 μM.

The subject of another test is E. coli. Description: Biofilm inhibition at 100 μM, E. coli. The following applies: Escherichia coli. Format: cell-based. The procedure:
as §6, with “Plates were washed with water again and the remaining stain was solubilized with 200 μL of 95% ethanol. A sample of 125 μL of solubilized CV stain from each well was transferred to the corresponding wells of a polystyrene microtiter dish.” left out, “out. […]” for “out.”

The structures appear in SMILES notation. Where a name gives a salt, the structure may show the parent alone. Read-outs that look alike come from different tables or passages of the source.

On to `C/C(=C\c1ccccc1)Cn1cc(CCCCCc2c[nH]c(N)n2)nn1` [Compound 11, 4-{5-[1-(2-Methyl-3-phenyl-allyl)-1H-[1,2,3]triazol-4-yl]-pentyl}-1H-imidazol-2-ylamine hydrochloride], for which the IC50 in test [1] is 9.5 µM; in [2], 5.6 µM; in [3] (S. aureus, value in nM), 810 nM; in the test with A. baumannii biofilms, 0.98 µM; in [8] (PA14, value in nM) it was 530 nM. Further, the EC50 in test [4] was 22 µM; in [5], 55 µM; in test [6], 11 µM; in test [7], 2.6 µM; in test [10], 120 µM. Besides, the “bactericidal / microbicidal activity (colony counts and growth curves)” value in test [9] is reported as “not due to microbicidal activity”.
In the case of `C/C(=C\c1ccccc1)Cn1cc(CCCCc2cnc(N)[nH]2)nn1` [Compound 10, 4-{4-[1-(2-Methyl-3-phenyl-allyl)-1H-[1,2,3]triazol-4-yl]-butyl}-1H-imidazol-2-ylamine], the IC50 in test [1] worked out at 23 µM; in test [2], 15 µM; in test [3], 7000 nM; in the test on A. baumannii biofilms, 2.8 µM; in [8] (P. aeruginosa PA14) it was 4000 nM. Besides, the EC50 in [4] amounted to 35 µM; in [5] it was 59 µM; in test [6] it was 81 µM; in test [7], 16 µM; in [10], 210 µM. In addition, the “bactericidal / microbicidal activity (colony counts and growth curves)” value in test [9] was “not due to bactericidal activity”.
Regarding `C/C(=C\c1ccccc1)Cn1cc(CCCc2c[nH]c(N)n2)nn1` [Compound 6, 5-{3-[1-(2-Methyl-3-phenyl-allyl)-1H-[1,2,3]triazol-4-yl]-propyl}-1H-imidazol-2-ylamine hydrochloride], in the test with A. baumannii biofilms, the IC50 is 12 µM. In addition, a half-maximal response in [10] (EC50) required 400 µM. Besides, in test [11], the “effect on planktonic growth (growth curves and colony counts)” value is “no effect on planktonic growth”.
On to `CCCCCCCCCCNC(=O)Cn1cc(CCCc2c[nH]c(N)n2)nn1` [2-{4-[3-(2-amino-1H-imidazol-4-yl)-propyl]-[1,2,3]triazol-1-yl}-N-decyl-acetamide hydrochloride], for which the inhibition at 100 µM in the test with MRSA was 99 ± 1%; with E. coli, 62.7 ± 0.4%.
Consider `CCCCCCCCCCCCCCNC(=O)Cn1cc(CCCc2c[nH]c(N)n2)nn1` [2-{4-[3-(2-amino-1H-imidazol-4-yl)-propyl]-[1,2,3]triazol-1-yl}-N-tetradecyl-acetamide hydrochloride], for which the inhibition at 100 µM in the test on MRSA worked out at 90.8 ± 8%; in the test with E. coli, 35.6 ± 0.6%.
